In patent publication US20260118350A1, “Fluorescent Probes for Peroxidase-Mediated Fluorescent Signal Amplification” (Seoul National University R&DB Foundation, priority 2024, published 2026):
“Also recorded” adds a separate entry of the source.

Key:
organelle-targeted APEX2 = assay: Fixed-cell FLEX staining of organelle-targeted APEX2-POIs; assay type: cell-based, Human; details: fixed cells, PHEMS buffer 100 mM pH 7.4
Method: HeLa cells were transiently transfected with the APEX2-POI construct using PEI when cells reached approximately 70% confluency, following the protocol provided by the production company of PEI. After transfection and protein expression, the cells were fixed with 4% PFA in 1×DPBS for 15 minutes at room temperature. Subsequently, the cells were washed three times with DPBS. For the APEX reaction, JFT probes (100-500 μM) and H2O2 (0.5-1 mM) were used in 0.1 M PHEMS buffer for the specified time points. […] The detection of JFT fluorescence and immunofluorescence was performed using the GFP channel (excitation at 488 nm), RFP channel (excitation at 561 nm), and Cy5 channel (excitation at 647 nm) of a confocal light microscope 428 (FV3000, Olympus, Japan).
It was assessed whether JFT1 could react with APEX2 targeting various organelles under fixed conditions. […] Furthermore, JFT1 effectively generated a fluorescence signal with the APEX2-tagged POIs (APEX2-POIs) within specific compartments, including the mitochondrial matrix (Matrix-V5-APEX2), nucleus (V5-APEX2-NLS), and ER lumen (SEC61B-V5-APEX2) under fixed-cell conditions. […] These findings validate the wide applicability of JFT1 for APEX2-mediated fluorescence signal amplification (FLEX) in various subcellular organelles. […]

[1] = Photophysical properties in buffer (absorption, fluorescence); assay type: physicochemical
Method: These photophysical properties render the JF probes suitable for detection in the RFP channel (excitation at 561 nm, fluorescence emission filter: 565-620 nm). […] The absorbance spectra largely shifted from 515 (pH 7.4) to 416 nm when the probe was incubated at pH 6.0. […] This property enables the detection of JF probes in the GFP channel; however, the fluorescence intensity was negligible compared to that of GFP or GFP variant proteins (mEosEM etc.).

Matrix-V5-APEX2 = assay: Pre-embedding osmium treatment CLEM of JFT1-stained fixed Matrix-V5-APEX2 cells; assay type: cell-based; details: 500 μM JFT1, 1 mM H2O2, 5 min; 0.4% OsO4, dehydration, resin embedding, 100 nm ultrathin section
Method: To obtain the SEM-based CLEM images via pre-embedding osmium treatment procedure (FIG. 2C, lower), cells were fixed with 2.5% glutaraldehyde (Electron Microscopy Sciences, cat. No. 16200) and 2% paraformaldehyde (Electron Microscopy Sciences, cat. No. 19210) in 0.1 M cacodylate solution (pH 7.0) for 30 min at 4° C. After washing, 20 mM glycine solution was used for quenching unreacted aldehyde. Next, JFT1 probe labeling with 500 μM JFT1 and 0.5-1 mM H2O2, was conducted for 5 min. Next, JFT1-labeled cells were post-fixed with 0.4% osmium tetroxide (OsO4) containing 1.5% potassium ferrocyanide in distilled water for 30 min at 4° C. and en bloc in 1% uranyl acetate (EMS, USA, cat. No. 22400) overnight and dehydrated with a graded ethanol series. The samples were then embedded with an EMBed-812 embedding kit (Electron Microscopy Sciences, USA, cat. No. 14120) and polymerized in an oven at 60° C. […]
Given the significance of osmium staining in EM sample preparation, the preservation of JF and JFT1 fluorescence after OsO4 treatment was tested. Remarkably, both JF- and JFT1-stained APEX2-expressing regions retained 70-80% of the original osmium-resistant fluorescence intensity even after osmium treatment (0.1% OsO4), facilitating their detection using confocal microscopy (FIG. 2D). […]

TOM20-V5-APEX2 = assay: Fixed-cell APEX labeling with TOM20-V5-APEX2 (confocal colocalization, line scan); assay type: cell-based, Human
Method: HeLa cells were transiently transfected with the APEX2-POI construct using PEI when cells reached approximately 70% confluency, following the protocol provided by the production company of PEI. After transfection and protein expression, the cells were fixed with 4% PFA in 1×DPBS for 15 minutes at room temperature. Subsequently, the cells were washed three times with DPBS. For the APEX reaction, JFT probes (100-500 μM) and H2O2 (0.5-1 mM) were used in 0.1 M PHEMS buffer for the specified time points. The APEX2-mediated reaction was quenched using a quencher solution (a mixture of sodium ascorbate, trolox, and sodium azide, see PMID: 23371551), and the cells were washed three times with DPBS buffer. For immunofluorescence imaging, the cells were permeabilized with −20° C. methanol for 5 minutes, followed by the standard immunofluorescence staining protocol. The detection of JFT fluorescence and immunofluorescence was performed using the GFP channel (excitation at 488 nm), RFP channel (excitation at 561 nm), and Cy5 channel (excitation at 647 nm) of a confocal light microscope 428 (FV3000, Olympus, Japan). […]

green fluorescence Imax ([1]; acidic pH (pH<7), excitation 405 or 450 nm): 520 nm
absorbance spectra maximum ([1]; pH 6.0): 416 nm
absorbance spectra maximum ([1]; pH 7.4): 515 nm
fluorescence signal after pre-embedding steps (Matrix-V5-APEX2): well-preserved
SMILES: OCCn1cc(C[n+]2c(/C=C/c3ccc(O)cc3)sc3ccccc32)nn1 [JFT1, (E)-3-((1-(2-hydroxyethyl)-1H-1,2,3-triazol-4-yl)methyl)-2-(4-hydroxystyryl)benzo[d]thiazol-3-ium]
fluorescence signal in GFP channel (organelle-targeted APEX2): weak green fluorescence signal
fluorescence signal in RFP channel (organelle-targeted APEX2): strong red fluorescence signal
labeling pattern by line scan analysis vs anti-V5 stain (TOM20-V5-APEX2; fixed cells, TOM20-V5-APEX2, RFP signal): most optimal and restricted labeling pattern; also recorded: most well-matched pattern
Pearson correlation coefficient (r) between probe-labeling region (RFP signal) and enzyme-expressed region (anti-V5 stain) (TOM20-V5-APEX2; fixed sample, TOM20-V5-APEX2): 0.91
